# Patent publication US6943147B2, “Cancer treatment using proANP peptides” (University of South Florida, priority 2003, dated 2005)
# How the values were obtained:
# [1] = tested on: human pancreatic adenocarcinomas; experiment: Growth of human pancreatic adenocarcinomas in vivo in athymic mice; design: species or system NCr athymic nude mice
# Excerpt: The animals used in the whole animal studies were NCr athymic nude mice. The NCr athymic outbred stock is the standard athymic model for National Cancer Institute (NCI) studies as well as many pharmaceutical and institutional oncology screening programs. The nude gene in homozygous (nu/nu) mice causes the lack of fur and an abnormal thymus. The deficiency in T cell function allows athymic mice to accept and grow xenografts as well as allograftsof normal and malignant tissues. Heterozygous (nu/+) animals carry the recessive nude gene on one chromosome only and therefore have a normal thymus triggered immune system. NCr-nu breeder stock was obtained from the NCI in 1993 after several years of random breeding. It was hysterectomy derived to achieve germfree status prior to its introduction into IBU colonies. This outbred stock has both BALB/c inbred and NIH(S) outbred stock in its genetic background. The homozygotes (nu/nu) used for the proposed investigations are albino animals with the model number of NCRNU-M from […] also being called Tac:Cr:(NCr)-Foxn1^nu: Six week old nude mice were utilized for these studies as they weight approximately 20 grams at this time period and the subcutaneous pumps used to infuse the respective four atrial natriuretic peptides were designed for 20 gram and larger mice. These mice accept malignant tissues. After one week of accliminization to their new surroundings, the mice have 1×10^6 of the adenocarcinoma cells placed under the skin on their backs. […] Tumor volume was calculated by the formula V (volume)=a×b^2/2 where “a” is the largest superficial diameter and b is the smallest superficial diameter. […] When the tumors first became palpable their volume was recorded and then an osmotic pump (Alzet Model 1002) containing either 0.9% saline (control infusion) or one of the respective peptide hormones in 0.9% saline was placed subcutaneously between the shoulder blades under anesthesia (pentobarbital 40 mg/kg body wt intraperitoneally). […]
# [2] = tested on: pancreatic adenocarcinoma cell line, ATCC number CRL-2119; experiment: Number of pancreatic adenocarcinoma cells in culture, counted by microscope; type: cell-based, human
# Excerpt: The pancreatic adenocarcinoma cell line, ATCC number CRL-2119, was derived in 1985 from a nude mouse xenograft of a primary tumor removed from the head of the pancreas. It is a moderate to well-differentiated pancreatic adenocarcinoma of ductal origin. These pancreatic adenocarcinoma cells are stimulated to proliferate in culture by insulin, insulin-like growth factor I (IGF-I), epidermal growth factor (EGF), and transforming growth factor alpha (TGF alpha). These adenocarcinoma cells contain significant concentrations of tumor-associated antigens CEA, CA 125, and CA 19-9. In culture, these adenocarcinoma cells form monolayers of morphologically heterogeneous polar epithelial cells. These cells are tumorgenic in that they form tumors in athymic nude mice at the site of inoculation that are histologically similar to the tumor of origin.
# Propagation of these cells was in Dulbecco's modified Eagle's plus Ham's F12-A 1:1 mixture of Dulbecco's modified Eagle's medium and Ham's F12 medium containing 1.2 g/L of sodium bicarbonate (Sigma Chemical Co., St. Louis, Mo.) supplemented with 15 mM HEPES and fetal bovine serum, 10%, at a temperature of 37° C. as recommended by the ATCC.
# These pancreatic adenocarcinoma cells were subcultured (passaged) by removing spent (i.e., old) medium by aspiration, and then adding calcium and magnesium free Hank's Balanced Salt Solution with 0.25% trypsin and 0.03% ethylenediaminetetracetic acid (EDTA). The culture was allowed to sit at room temperature for 2 to 5 minutes. Fresh medium was added to the adenocarcinoma cells which were dispensed into new flasks, with subculture every 6 to 8 days. The growth medium was changed every three days.
# After these adenocarcinoma cells were subcultured for 24 hours, they were then seeded to coverslips and transferred to 24 microwell plates (NUCOLON, Roskilde Denmark), with 1 ml Dulbeco Modified Eagle's (DME)/[…] nutrient culture media (Sigma Chemical Co.) with 10% fetal bovine serum (Atlanta Biologicals, Norcross, Ga.). After 24 hours, wells were washed twice with Dulbecco's Modified Eagle's/Ham's F12 with 0.1% bovine serum albumin (Sigma-Aldrich, St. Louis, Mo.) and allowed to incubate in this serum free medium for an additional 24 hour period of serum deprivation. Serum-free media was utilized to remove all variables (EGF, etc.) present in serum in order that interpretation of any data obtained would be straightforward. After 24 hours of serum deprivation, media volume was reduced to 250 μL per well with or without the respective peptide hormones at their 1 μM concentrations (1% of this volume). The adenocarcinoma cells were then incubated for various periods of time (24, 48, 72, and 96 hours).At the end of the above time periods, hematoxylin was added for 5 minutes to make the cells more visible for counting, and then they were washed for 5 minutes. The coverslips were then placed face down on microscope slides with the addition of 6 μl of histologic grade phosphate buffered saline (PBS)/I-glycine that had been filtered immediately before use with a 0.22 μm polyethersulfone, nonpyrogenic, sterile, low protein binding membrane (Corning 43117, Corning Inc., Corning, N.Y.). The number of adenocarcinoma cells were then counted with a cell counter evaluating ten fields of the microscope slide at 40× along the X-axis with an Olympus BH-2 microscope (Atlanta, Ga.). This evaluation was repeated on six separate occasions with the number of adenocarcinoma cells reflecting 60 observations for each group, i.e., 60 observations for controls and 60 observations for each of the four groups with respective peptide hormones. The only variable in this investigation was whether one of the four peptide hormones was added to the pancreatic adenocarcinoma cells. Otherwise all the adenocarcinoma cells were treated the same, i.e., with same culture medium, time of incubation, and processing of cells for the various investigations. […]
substance,measurement,setting,value
vessel dilator: a.a. 31-67 of the 126 a.a. ANP prohormone; peptide hormone from Peninsula Laboratories,side effects,[1]; 139 ng/min/kg infusion in whole animals,no side effects
same,growth of the human adenocarcinomas,"[1]; 139 ng/min/kg of body weight, subcutaneous infusion pump, 14 days, n=14",stopped the growth
same,change in tumor volume during the two weeks of infusion,"[1]; 139 ng/min/kg, 14 days, saline-treated increased 100 mm^3",no increase in volume
same,decrease in the number of adenocarcinoma cells,"[2]; 1 μM, 24 hours, vs untreated cells",65%
same,number of adenocarcinoma cells,"[2]; 1 μM, 24 hours, untreated 183.4+/−8",63.8+/−4 cells per high powered field
same,number of cancer cells compared to controls,"[2]; 1 μM, 48 hours",68%
same,decrease in the number of adenocarcinoma cells,"[2]; 1 μM, 72 hours, vs untreated cells",70%
same,decrease in the number of adenocarcinoma cells,"[2]; 1 μM, 96 hours, vs untreated cells",70%
same,decrease in the number of adenocarcinoma cells,[2]; time not stated,70%
